This note sets out measurements from patent US20170007561A1, “CONTEMPORANEOUS, HETEROGENEOUSLY-ORIENTED, MULTI-TARGETED THERAPEUTIC MODIFICATION AND/OR MODULATION OF DISEASE BY ADMINISTRATION OF SULFUR-CONTAINING, AMINO ACID-SPECIFIC SMALL MOLECULES” (BioNumerik Pharmaceuticals, Inc., priority 2014, published 2017).

Molecules are shown by their SMILES.

In assay [1] the target is T1, human glutaredoxin (Grx1) (Homo sapiens, UniProt P35754).
T1 construct: 6xHis (TEV-cleavable) (N, cleaved yes); made in house; host or cells: E. coli BL21 (RIPL)
T1 sequence (P35754 whole entry): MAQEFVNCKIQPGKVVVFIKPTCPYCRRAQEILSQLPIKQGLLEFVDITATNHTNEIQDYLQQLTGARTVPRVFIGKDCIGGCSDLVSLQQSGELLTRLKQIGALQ
As to the kind of experiment: X-ray crystallography of Tavocept-derived mesna adduct on Grx. Particulars: Tavocept 40 mM, 4° C. overnight. It counts as binding. The text has this:
Diffraction data were collected at the Advanced Light Source (ALS) (Berkeley, Calif.). […] Data was processed using the program package MosFlm as part of the ccp4 program package.
Data was indexed, integrated, scaled and merged using the program Mosflm. […] The solution was consistent with one molecule in the crystal asymmetric unit. […] The structure solution is supported by contiguous electron density for the entire chain trace of each molecule, landmark side chain density features matching the amino acid sequence including cysteines, absence of phi-psi violations and final R/Rfree values in the normal range. […] Residues Gln39 and Glu55 have missing side-chain atoms in the final structures (side chain atoms CD, CG, OE1, NE2 and CD, OE1, OE2, respectively).

Assay [2] concerns the target T2, recombinant human farnesyltransferase (Homo sapiens, UniProt P49354+P49356).
T2 construct: purchased Abcam
As to the kind of experiment: Farnesyltransferase Dansyl-GCVLS fluorescence assay. In kind it is biochemical. The method, then:
Tavocept-inhibited human farnesyltransferase-mediated transfer of farnesylpyrophosphate to the cysteine residue in a danyslated peptide substrate of sequence glycine-cysteine-valine-leucine-serine (designated—Dansyl-GCVLS) in vitro. See, FIG. 79. The assay reactions contained 25 nM recombinant human farnesyltransferase (Abcam), 10 μM farnesylpyrophosphate (SigmaAldrich), 3 μM Dansyl-GCVLS (NeoBioScience) in Tris buffer (50 mM, pH 7.5) containing 5 mM MgCl2, 10 μM ZnCl2, and 0.2% octyl-β-D-glucopyranoside. Total assay volumes were 50 μL and the reactions were initiated by the addition of FTase (5 μL of 250 nM stock was added to 45 μL of assay components listed above). The excitation wavelength was 340 nm (a 340 nm filter with 25 nm bandpass) and the emission wavelength was […] (505 nm filter with 20 nm bandpass) and the assay temperature was 25° C. Progress curves of the transfer of the farnesylpyrophosphate to the Dansyl-GCVLS substrate are shown in FIG. 79, Panel A and relative rates of the progress curve were determined and are shown in FIG. 79, Panel B.

In assay [3] the target is T3, human Trx with rat liver TrxR (Homo sapiens, UniProt P10599).
T3 sequence (P10599 1-105): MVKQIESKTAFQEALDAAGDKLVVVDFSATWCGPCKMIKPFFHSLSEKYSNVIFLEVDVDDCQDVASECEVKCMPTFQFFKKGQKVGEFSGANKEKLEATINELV
The experiment in a line: TrxR/Trx insulin disulfide reduction assay (NADPH oxidation 340 nm, insulin B chain precipitation 650 nm). It counts as biochemical. Particulars: Tavocept 0-10 mM, insulin 86 μM.

Assay [4] addresses T4, Recombinant human peroxiredoxin 1 (Homo sapiens, UniProt Q06830).
T4 construct: purchased SigmaAldrich
T4 sequence (Q06830 1-199): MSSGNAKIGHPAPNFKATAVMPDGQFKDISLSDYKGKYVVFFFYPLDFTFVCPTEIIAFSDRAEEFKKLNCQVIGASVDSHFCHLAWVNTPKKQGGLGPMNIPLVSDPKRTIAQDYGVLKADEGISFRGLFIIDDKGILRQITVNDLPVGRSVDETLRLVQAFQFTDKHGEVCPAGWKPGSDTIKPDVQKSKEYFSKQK
The experiment in a line: LC-MS of trypsin or chymotrypsin digested Prx 1 after incubation with Tavocept. In kind it is binding. The protocol:
Recombinant human peroxiredoxin 1 (purchased from SigmaAldrich; 333 μg; 0.015 micromoles) was reduced using an excess of dithiothreitol (DTT; 35 micromoles) in NH4HCO3 buffer (40 mM, pH 8.0) at 37° C. for 50 minutes (total reaction volume was 750 μL; final Prx concentration was 20 μM; and final DTT concentration was 46 mM). […] (total reaction volume was 500 μL). After 16-18 hours incubation, each reaction was removed and chromatographed using G25 Sephadex columns.
In brief, the G25 chromatographed Prx1 incubation reactions were digested with Trypsin Gold. Trypsin Gold was dissolved in 400 μL of NH4HCO3 and 100 μL of acetonitrile. A 100-150 μL volume of this Trypsin Gold stock was then added to 500 μl of the aforementioned final sample with 75 μL of acetonitrile and then the reaction volume was adjusted to a total of 750 μL with NH4HCO3. The sample was incubated for 6 hours at 37° C. Chymotrypsin digests were by dissolving chymotrypsin in 1M HCL. A 50 μL volume of this chymotrypsin stock solution was added to added to 500 μl of the aforementioned final sample along with 10% (v/v) of CaCl2 (100 mM stock). NH4HCO3 buffer was then added to bring the total reaction volume to 750 μL. Chymotrypsin digests were incubated for 16 hours at 30° C. Following digest by either trypsin or chymotrypsin, reactions were lyophilized to dryness overnight and then resuspended in a minimal amount of HPLC grade water prior to LC MS analyses.
A Symmetry C18 HPLC column (Waters, Franklin, Mass.; 3.5 μm; 4.6×75 mm) and a Waters Alliance liquid chromatography system (Waters 2695; Franklin, Mass.) coupled to a Micromass single quadropole mass detector (Micromass ZMD; Manchester, UK) were used to analyze fragments from trypsin or chymotrypsin digested human Prx1. The mobile phase contained 0.1% of formic acid throughout the run and the flow rate was 0.35 ml/min. […]

T2 sequence (P49356 whole entry, one chain of several): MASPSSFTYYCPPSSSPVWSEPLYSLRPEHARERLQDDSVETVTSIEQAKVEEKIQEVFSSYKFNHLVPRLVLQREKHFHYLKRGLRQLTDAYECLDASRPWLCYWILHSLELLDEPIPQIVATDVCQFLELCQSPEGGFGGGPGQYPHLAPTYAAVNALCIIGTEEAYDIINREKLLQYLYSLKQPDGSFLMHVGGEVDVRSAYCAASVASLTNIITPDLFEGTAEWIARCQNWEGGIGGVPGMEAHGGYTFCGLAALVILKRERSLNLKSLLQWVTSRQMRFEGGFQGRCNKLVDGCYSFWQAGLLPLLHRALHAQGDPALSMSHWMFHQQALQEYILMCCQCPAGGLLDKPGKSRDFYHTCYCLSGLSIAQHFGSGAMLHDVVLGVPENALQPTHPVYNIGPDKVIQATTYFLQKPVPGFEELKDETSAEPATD

As for `O=S(=O)([O-])CCSSCCS(=O)(=O)[O-].[Na+].[Na+]` [Tavocept, disodium 2,2′-dithio-bis-ethane sulfonate], the “Mesna adduct sites on Grx by X-ray” value in assay [1] was “Cys7 and Cys82”. Further, the Inhibition of farnesylation entry in assay [2] is recorded as “inhibits farnesylation in a concentration-dependent manner”. Moreover, the “Effect on TrxR/Trx mediated rate of NADPH oxidation during insulin reduction” value in assay [3] is recorded as “an effect on the TrxR/Trx mediated rate of NADPH oxidation”. Further, the “Tavocept-derived mesna Adduct detected?” value in assay [4] (chymotryptic fragment VCPTEIIAF (Cys 52)), in assay [4] (chymotryptic fragment […] (Cys 173)) and in assay [4] (tryptic fragment […] (Cys 173)) was “Yes” in each case.
